Data taken from patent publication US10772807B2, “Lipid microcapsules preferably comprising a retinoid, and composition containing same, method for the production thereof, and use of same in dermatology” (GALDERMA RESEARCH & DEVELOPMENT, priority 2013, dated 2020).

Tests used:
[1] = Maximum solubility of Trifarotene in various oily phases; type: physicochemical
[2] = Chemical stability of Trifarotene in oily phases (HPLC-UV); type: physicochemical
Method: The stability of the active agent was evaluated by liquid chromatography coupled to a UV detector (HPLC-UV).

[3] = in Caprylic/capric acid triglycerides (Miglyol ® 812N)
[4] = in Diisopropyl adipate (Schercemol Dia Ester)
[5] = in Macrogol oleate (Labrafil ® M1944CS)
[6] = in Octyldodecanol (Eutanol ® G)
[7] = in PPG-15 stearyl ether (Arlamol PS11E-LQ)
[8] = in Propylene glycol dicaprylate/dicaprate (Myritol ® PC)
[9] = in Propylene glycol monolaurate (Lauroglycol ® FCC)

`CC(C)(C)c1cc(-c2cc(-c3ccc(C(=O)O)cc3)ccc2OCCO)ccc1N1CCCC1` [Trifarotene, 3″-tert-butyl-4′-(2-hydroxyethoxy)-4″-pyrrolidin-1-yl-[1,1′;3′,1″]-terphenyl-4-carboxylic acid] showed a Maximum solubility ([1]; in Alkyl (C12-15) benzoate (Crodamol AB)) of 0.026 % w/w, a Maximum solubility [1, 3] of 0.019 % w/w and a Maximum solubility [1, 4] of 0.297 % w/w. The Maximum solubility [1, 5] was 0.156 % w/w, the Maximum solubility ([1]; in Mineral oil) was 0.0001 % w/w and the Maximum solubility [1, 6] was 0.137 % w/w. The Maximum solubility [1, 7] was 0.292 % w/w, the Maximum solubility [1, 8] was 0.069 % w/w and the Maximum solubility ([1]; in Propylene glycol monocaprylate (Capryol ® 90)) was 0.802 % w/w. The Maximum solubility [1, 9] was 0.296 % w/w, the Maximum solubility ([1]; in Sweet almond oil) was 0.011 % w/w and the Stability [2, 3] was 6 months AT/40 °C. For the same compound, the Stability [2, 4] was 6 months AT/40 °C, the Stability [2, 5] was 6 months AT/40 °C and the Stability [2, 6] was “Unstable”. For the same compound, the Stability [2, 7] was 6 months AT/40 °C, the Stability [2, 8] was “Unstable” and the Stability ([2]; in Propylene glycol monocaprylate (Capryol ® 90), AT = ambient temperature) was 6 months AT/40 °C. The Stability [2, 9] was 6 months AT/40 °C and the Stability ([2]; in Sweet almond oil) was 6 months AT/40 °C.
